The source of these data is patent US7514457B2, “Substituted aryloxymethyl bicyclicmethyl acetamide compounds” (Pfizer Inc., priority 2005, dated 2009).

Chain of human VR1 (Q8NER1 whole entry): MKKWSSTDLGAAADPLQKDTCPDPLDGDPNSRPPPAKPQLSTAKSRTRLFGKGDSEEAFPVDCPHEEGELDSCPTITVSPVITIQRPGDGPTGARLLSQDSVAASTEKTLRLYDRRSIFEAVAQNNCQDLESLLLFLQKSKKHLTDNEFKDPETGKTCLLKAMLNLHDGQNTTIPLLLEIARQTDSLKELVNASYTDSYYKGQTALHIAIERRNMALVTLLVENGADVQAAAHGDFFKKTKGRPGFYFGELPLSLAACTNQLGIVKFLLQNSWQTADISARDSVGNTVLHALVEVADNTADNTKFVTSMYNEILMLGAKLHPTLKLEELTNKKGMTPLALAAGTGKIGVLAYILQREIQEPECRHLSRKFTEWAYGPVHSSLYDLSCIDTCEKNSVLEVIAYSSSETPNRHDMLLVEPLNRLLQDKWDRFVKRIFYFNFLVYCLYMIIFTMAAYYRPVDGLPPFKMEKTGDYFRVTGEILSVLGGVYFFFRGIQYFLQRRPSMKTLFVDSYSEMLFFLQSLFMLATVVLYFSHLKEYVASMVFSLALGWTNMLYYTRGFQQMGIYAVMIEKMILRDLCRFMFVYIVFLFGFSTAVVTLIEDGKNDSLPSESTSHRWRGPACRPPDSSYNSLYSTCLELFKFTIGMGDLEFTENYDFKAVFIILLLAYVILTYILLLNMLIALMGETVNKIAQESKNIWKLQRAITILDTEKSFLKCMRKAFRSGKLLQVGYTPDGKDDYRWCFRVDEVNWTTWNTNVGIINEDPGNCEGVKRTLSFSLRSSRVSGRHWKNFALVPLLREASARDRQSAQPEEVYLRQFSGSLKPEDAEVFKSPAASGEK

This test concerns the target human VR1 (Homo sapiens, UniProt Q8NER1). As to the kind of experiment: Human VR1 antagonist assay (Ca2+ imaging). The test is classed as cell-based. The settings on record: Ca2+ imaging in human VR1 expressing cells; agonist stimulation (capsaicin 300 nM or acid pH 5.8) not given. The source says:
VR1 antagonistic activity can be determined by the Ca^2+ imaging assay using human VR1 highly expressing cells. The cells that highly express human VR1 receptors are obtainable from several different conventional methods. The one standard method is cloning from human Dorsal Root Ganglion (DRG) or kidney according to the methods such as described in the journal article; Nature, 389, pp816-824, 1997. Alternatively VR1 receptors highly expressing human keratinocytes are also known and published in the journal article (Biochemical and Biophysical Research Communications, 291, pp124-129, 2002). […] Furthermore, the method to up regulate human VR1 gene, which is usually a silent gene or don't produce detectable level of VR1 receptors, is also available to obtain propriety cells. Such genetic modification method was described in detail; Nat. Biotechnol., 19, pp440-445, 2001.
The cells that express human VR1 receptors were maintained in culture flask at 37° C. in an environment containing 5% CO2 until use in the assay. The intracellular Ca^2+ imaging assay to determine VR1 antagonistic activities were done by following procedures.
The culture medium was removed from the flask and fura-2/AM fluorescent calcium indicator was added to the flask at a concentration of 5 μM in the medium. The flask was placed in CO2 incubator and incubated for 1 hour. Then the cells expressing the human VR1 receptors were detached from the flask follow by washing with phosphate buffer saline, PBS(−) and re-suspended in assay buffer. The 80 μl of aliquot of cell suspension (3.75×10^5 cells/ml) was added to the assay plate and the cells were spun down by centrifuge (950 rpm, 20° C., 3 minutes).
The capsaicin-induced changes in the intracellular calcium concentration were monitored using FDSS 6000 (Hamamatsu Photonics, Japan), a fluorometric imaging system. The cell suspension in Krebs-Ringer HEPES (KRH) buffer (115 mM NaCl, 5.4 mM KCl, 1 mM MgSO4, 1.8 mM CaCl2, 11 mM D-Glucose, 25 mM HEPES, 0.96 mM Na2HPO4, pH 7.3) were pre-incubated with varying concentrations of the test compounds or KRH buffer (buffer control) for 15 minutes at room temperature under the dark condition. Then capsaicin solution, which gives 300 nM in assay mixture, was automatically added to the assay plate by the FDSS 6000.
The Acid-induced changes in the intracellular calcium concentration were monitored using FDSS 6000 (Hamamatsu Photonics, Japan), a fluorometric imaging system. The cell suspension in resting buffer (HBSS supplemented with 10 mM HEPES, pH 7.4) were pre-incubated with varying concentrations of the test compounds or resting buffer (buffer control) for 15 minutes at room temperature under the dark condition. The cells were automatically added the stimulating solution (HBSS supplemented with MES, final assay buffer pH5.8) by the FDSS 6000.
The monitoring of the changes in the fluorescence signals (λex=340 nm/380 nm, λem=510-520 nm) was initiated at 1 minute prior to the addition of capsaicin solution or acidic buffer and continued for 5 minute.
The compounds of the examples were tested in the Human VR1 antagonist assay described above.
Broadly, the IC50 is the concentration that gives 50% inhibition. Low readings indicate greater potency in that assay, high ones weaker potency in that assay. The molecule `Oc1cc2c(cc1O)CN(C(=S)NCCc1ccc(Cl)cc1)CCC2` [Capsazepine, reference compound] came in with a half-maximal inhibitory concentration (IC50) of 250 to 350 nM.

In turn, `CC(C)(C)c1ccc(OCC(=O)NCc2ccc3[nH]c(=O)[nH]c3c2)cc1` [Example 1, 2-(4-tert-Butylphenoxy)-N-[(2-oxo-2,3-dihydro-1H-benzimidazol-5-yl)methyl]acetamide] came in with an IC50 of 421 nM.

For the molecule `CC(C)(C)c1ccc(OCC(=O)NCc2ccc3[nH]c(=O)[nH]c3c2)cc1F` [Example 2, 2-(4-tert-butyl-3-fluorophenoxy)-N-[(2-oxo-2,3-dihydro-1H-benzimidazol-5-yl)methyl]acetamide], the half-inhibitory concentration (IC50) is 111 nM.

In turn, `CC(C)(C)c1c(F)cc(OCC(=O)NCc2ccc3[nH]c(=O)[nH]c3c2)cc1F` [Example 3, 2-(4-tert-butyl-3,5-difluorophenoxy)-N-[(2-oxo-2,3-dihydro-1H-benzimidazol-5-yl)methyl]acetamide] registered a half-inhibitory concentration (IC50) of 97 nM. This IC50 and that of the molecule before are within 1.5-fold of each other.

`CC(C)(C)c1ccc(OCC(=O)NCc2ccc3[nH]c(=O)[nH]c3c2)cc1Cl` [Example 4, 2-(4-tert-Butyl-3-chlorophenoxy)-N-[(2-oxo-2,3-dihydro-1H-benzimidazol-5-yl)methyl]acetamide] returned an IC50 of 86 nM. The IC50 values of the last two molecules are within 1.5-fold of each other.

For `Cn1c(=O)[nH]c2cc(CNC(=O)COc3ccc(C(C)(C)C)cc3)ccc21` [Example 5, 2-(4-tert-butylphenoxy)-N-[(1-methyl-2-oxo-2,3-dihydro-1H-benzimidazol-5-yl)methyl]acetamide], the 50% inhibitory concentration (IC50) worked out at 462 nM.

The molecule `Cn1c(=O)[nH]c2cc(CNC(=O)COc3ccc(C(C)(C)C)c(Cl)c3)ccc21` [Example 7, 2-(4-tert-butyl-3-chlorophenoxy)-N-[(1-methyl-2-oxo-2,3-dihydro-1H-benzimidazol-5-yl)methyl]acetamide] had a concentration for half-maximal inhibition (IC50) of 175 nM. Compared with the last molecule, the IC50 is about 2.6-fold lower.

`Cn1c(=O)[nH]c2ccc(CNC(=O)COc3ccc(C(C)(C)C)c(Cl)c3)cc21` [Example 8, 2-(3-chloro-4-tert-butylphenoxy)-N-[(3-methyl-2-oxo-2,3-dihydro-1H-benzimidazol-5-yl)methyl]acetamide] gave a concentration for half-maximal inhibition (IC50) of 481 nM. Against the preceding molecule, the IC50 is about 2.7-fold higher.

In the case of `CC(C)(C)c1ccc(OCC(=O)NCc2ccc3c(c2)CC(=O)N3)cc1Cl` [Example 9, 2-(3-chloro-4-tert-butylphenoxy)-N-[(2-oxo-2,3-dihydro-1H-indol-5-yl)methyl]acetamide], the 50% inhibitory concentration (IC50) was 478 nM.

Take `CC(C)(C)c1ccc(OCC(=O)NCc2ccc3[nH]c(=O)oc3c2)cc1Cl` [Example 10, 2-(3-chloro-4-tert-butylphenoxy)-N-[(2-oxo-2,3-dihydro-1,3-benzoxazol-6-yl)methyl]acetamide]: the IC50 amounted to 413 nM.

On to `CC(C)(C)c1ccc(OCC(=O)NCc2ccc3[nH]cnc3c2)cc1` [Example 11, 2-(4-tert-butylphenoxy)-N-(1H-benzindazol-5-ylmethyl)acetamide], for which the IC50 turned out to be 837 nM.

With `CC(C)(C)c1ccc(OCC(=O)NCc2ccc3[nH]cnc3c2)cc1` [Example 12, N-(1H-benzimidazol-5-ylmethyl)-2-(4-tert-butylphenoxy)acetamide], the half-inhibitory concentration (IC50) is 286 nM.

In turn, `CC(NC(=O)COc1cc(F)c(C(C)(C)C)c(F)c1)c1ccc2[nH]c(=O)[nH]c2c1` (stereo not drawn) [Example 13, 2-(4-tert-Butyl-3,5-difluorophenoxy)-N-[1-(2-oxo-2,3-dihydro-1H-benzimidazol-5-yl)ethyl]acetamide] yielded an IC50 of 50 nM.

With `C[C@@H](NC(=O)COc1cc(F)c(C(C)(C)C)c(F)c1)c1ccc2nn[nH]c2c1` [Example 14, N-[(1R)-1-(1H-1,2,3-Benzotriazol-6-yl)ethyl]-2-(4-tert-butyl-3,5-difluorophenoxy)acetamide], the 50% inhibitory concentration (IC50) was 31 nM.

`CC(NC(=O)COc1cc(F)c(C(C)(C)C)c(F)c1)c1ccc2ncsc2c1` (stereo not drawn) [Example 15, N-[1-(1,3-benzothiazol-6-yl)ethyl]-2-(4-tert-butyl-3,5-difluorophenoxy)acetamide] gave a concentration for half-maximal inhibition (IC50) of 71 nM.
